Tested on: DN rats
Experiment: type II diabetic nephropathy (DN) rat model (high-sugar high-fat diet + streptozocin)
Type: in vivo, SD (Sprague Dawley) rats
Conditions: for BUN / CREA / Glycated hemoglobin / Urinary protein / mALB (microalbumin in urine) / ICAM-1 / IL-1β / IL-6 / MDA / NF-κB / SOD / T-AOC / TGF-β1 / TNF-α / VCAM-1 / Glucose (GLU) / HDL-C / LDL-C / TC / TG / UA / Kidney coefficient: gavage, 6 weeks; for Urinary protein / mALB (microalbumin in urine): 6-hour urine; for ICAM-1 / IL-1β / IL-6 / MDA / NF-κB / SOD / T-AOC / TGF-β1 / TNF-α / VCAM-1: renal tissues; for Glucose (GLU) / HDL-C / LDL-C / TC / TG / UA: serum; for Kidney coefficient: weights of two kidneys/body weight
Method: The solid dispersions are prepared through a solvent method, comprising steps of: respectively precisely weighing LM49, PVPK30 and tween80 with a weight ratio of 1:5:1, and A8, PVPK30 and tween80 with a weight ratio of 1:4:1; dissolving with appropriate absolute ethyl alcohol, continuously stirring, and uniformly mixing; placing on the water bath at 60° C., evaporating and removing the absolute ethyl alcohol, and obtaining a viscous material; placing in the freezer at −20° C., and freezing for 2 hours; taking out from the freezer, then placing in the vacuum drying oven, and drying for 24 hours; after becoming embrittlement, smashing and sieving with a sieve of 80 meshes, and then placing in the dryer for storage.
The healthy adult male SD rats (having a weight of 180-220 g) are fed with the high-sugar and high-fat diet for 4 weeks; the rats are fasting overnight; and streptozocin (STZ) of 40 mg/kg is intraperitoneally injected into the rats. The rats of normal control group are injected with the sodium citrate buffer of same volume; 72 hours later, the rats are fasting for 12 hours. […] During the administration period, the successfully established model rats are still fed with the high-sugar and high-fat diet, while the rats of the normal control group are fed with the normal diet.
After administration for 6 weeks, 6-hour urine of the rats is collected with the metabolism cage.
The rats are fasting overnight and anesthetized intraperitoneally, then the abdominal aorta blood thereof is drawn for measuring the related indexes. The two kidneys of each rat are washed with the normal saline; weights of the kidneys are recorded; and the kidney coefficient (weights of two kidneys/body weight) is calculated. The renal tissues (comprising the glomerulus and renal tubules) at the same part of the left kidney are cut lengthwise and immersed in the 10% neutral formalin for pathomorphology analysis, and the other parts of the left kidney are used for biochemical index measurement; the right kidney is used for mechanism research and stored in the freezer at −80° C.
After successfully establishing the model rats, expect the normal control group (ten rats), the remaining rats are randomly divided into eight groups, wherein each group has twelve rats. The eight groups are respectively the model group, the LM49 solid dispersion low-dose group (with the drug concentration of 3 mg/kg), the LM49 solid dispersion medium-dose group (with the drug concentration of 9 mg/kg), the LM49 solid dispersion high-dose group (with the drug concentration of 27 mg/kg), the A8 solid dispersion low-dose group (with the drug concentration of 3 mg/kg), the A8 solid dispersion medium-dose group (with the drug concentration of 9 mg/kg), the A8 solid dispersion high-dose group (with the drug concentration of 27 mg/kg), and the captopril control group (with the drug concentration of 15 mg/kg).
Administration Way: By Gavage.
The rats of the normal control group and the model group are administrated with the normal saline of 1.0 ml/100 g; the rats of the positive control group, the LM49 solid dispersion high-dose, medium-dose and low-dose groups and the A8 solid dispersion high-dose, medium-dose and low-dose groups are respectively administrated with the drugs of different concentrations, and the administration volume is 1.0 ml/100 g.
The solid dispersions are dissolved by the normal saline; and the rats of the positive control group are administrated with the 0.5% CMC-Na (sodium carboxymethyl cellulose) suspension.
The rats are administrated seven days a week, for totally six weeks.
The IBM SPSS Statistics 20 software is used for data processing, and the data is represented in x±s. The one-way analysis of variance (ANOVA) is adopted for comparison among the groups. According to the homogeneity test results of variance, if the variance is equal, the LSD (least significant difference) test is adopted; if the variance is unequal, the Dunnett's T3 test is adopted. […]

## O=C(c1cc(Br)ccc1O)c1cc(O)c(O)cc1Br [LM49, 2,5′-dibromo-4,5,2′-trihydroxyldiphenylmethanone]
DN rats, high-dose 27 mg/kg
  BUN: 10.66 ± 2.52 mmol/L
  CREA: 55.12 ± 4.05 µmol/L
  Glycated hemoglobin: 8.10 ± 1.50%
  Urinary protein: 2.82 ± 0.54^□□▴◯● mg/6 h
  mALB (microalbumin in urine): 52.22 ± 7.46^□□▴▴ μg/6 h
  ICAM-1: 282.88 ± 59.07 pg/mgprog
  IL-1β: 121.69 ± 16.12 pg/mgprog
  IL-6: 119.09 ± 11.51^□ pg/mgprog
  MDA: 1.16 ± 0.19 nmol/mgprog
  NF-κB: 215.39 ± 43.61^□□▴▴◯◯ pg/mgprog
  SOD: 4.06 ± 0.78 U/mgprog
  T-AOC: 1.37 ± 0.31 U/mgprog
  TGF-β1: 30.58 ± 5.83^□□▴▴ pg/mgprot
  TNF-α: 279.29 ± 41.89^□ pg/mgprog
  VCAM-1: 26.85 ± 5.63 pg/mgprog
  Glucose (GLU): 10.73 ± 2.89^□□▴◯ mmol/L
  HDL-C: 1.17 ± 0.24 mmol/L
  LDL-C: 1.61 ± 0.54^□□ mmol/L
  TC: 3.00 ± 0.79^□□ mmol/L
  TG: 0.54 ± 0.13^□□ mmol/L
  UA: 29.41 ± 7.23^□□●● μmol/L
  Kidney coefficient: 1.00 ± 0.09%
DN rats, kidney pathology (HE, Masson staining)
  lesions of the renal tissues: effectively reduce the lesions of the renal tissues
DN rats, low-dose 3 mg/kg
  BUN: 11.59 ± 2.78 mmol/L
  CREA: 54.11 ± 3.50 µmol/L
  Glycated hemoglobin: 9.01 ± 0.61%
  Urinary protein: 5.81 ± 1.42^□□ mg/6 h
  mALB (microalbumin in urine): 143.47 ± 33.28^□□●● μg/6 h
  ICAM-1: 384.02 ± 100.59 pg/mgprog
  IL-1β: 158.77 ± 43.38 pg/mgprog
  IL-6: 195.42 ± 2.34 pg/mgprog
  MDA: 1.65 ± 0.25 nmol/mgprog
  NF-κB: 2415.59 ± 515.30 pg/mgprog
  SOD: 5.66 ± 1.87 U/mgprog
  T-AOC: 1.52 ± 0.58 U/mgprog
  TGF-β1: 100.46 ± 25.56 pg/mgprot
  TNF-α: 573.35 ± 150.75 pg/mgprog
  VCAM-1: 39.34 ± 10.56 pg/mgprog
  Glucose (GLU): 19.94 ± 6.09^□□ mmol/L
  HDL-C: 1.27 ± 0.12 mmol/L
  LDL-C: 1.90 ± 0.54^□□ mmol/L
  TC: 3.28 ± 0.59^□□ mmol/L
  TG: 0.38 ± 0.10^□□ mmol/L
  UA: 26.01 ± 6.54^□□●● μmol/L
  Kidney coefficient: 1.08 ± 0.09%
DN rats, medium-dose 9 mg/kg
  BUN: 10.97 ± 3.01 mmol/L
  CREA: 55.25 ± 1.01 µmol/L
  Glycated hemoglobin: 8.59 ± 0.85%
  Urinary protein: 5.29 ± 0.61^□□ mg/6 h
  mALB (microalbumin in urine): 125.38 ± 23.67^□□● μg/6 h
  ICAM-1: 334.79 ± 55.46 pg/mgprog
  IL-1β: 146.20 ± 16.12 pg/mgprog
  IL-6: 168.44 ± 30.33 pg/mgprog
  MDA: 1.92 ± 0.34 nmol/mgprog
  NF-κB: 1017.81 ± 239.12^□▴●● pg/mgprog
  SOD: 5.33 ± 1.01 U/mgprog
  T-AOC: 1.93 ± 0.43 U/mgprog
  TGF-β1: 53.60 ± 11.60^□● pg/mgprot
  TNF-α: 436.04 ± 84.54 pg/mgprog
  VCAM-1: 34.76 ± 5.04 pg/mgprog
  Glucose (GLU): 18.58 ± 2.71^□□ mmol/L
  HDL-C: 1.16 ± 0.21 mmol/L
  LDL-C: 1.51 ± 0.48^□□ mmol/L
  TC: 2.71 ± 0.49^□□ mmol/L
  TG: 0.30 ± 0.11^□□ mmol/L
  UA: 25.63 ± 5.83^□□●● μmol/L
  Kidney coefficient: 1.09 ± 0.14%
Overall summary in words
  effect on resisting the DN of rats: obvious effect on resisting the DN of rats

— patent publication US20190133968A1, “Applications of benzophenones in preparation of drug” (SHANXI MEDICAL UNIVERSITY, priority 2016, published 2019)
